# Data published in patent US8697738B2, “Alpha-aminoamide derivatives useful in the treatment of addictive disorders” (Newron Pharmaceuticals S.p.A., priority 2004, dated 2014).
# “Also recorded” adds a separate entry of the source.
# Key:
# [1] = test system: cocaine-induced hyperactivity; assay: Cocaine interaction study in mice (cocaine-induced locomotion increase); type: in vivo, Swiss-Webster Mice; conditions: 100 mg/kg ip, cocaine 20 mg/kg ip
# Text: Typically, psychostimulant addictive drugs as amphetamine and cocaine induce an increase in locomotor activity in rodents and primate. Some compounds with anti-addictive potential properties can prevent the increase in locomotor activity induced by psychostimulant drugs. (Katz J L, Kopajtic T A, Myers K A, Mitkus R J, Chider M, Behavioral effects of cocaine: interactions with D1 dopaminergic antagonists and agonists in mice and squirrel monkeys. J Pharmacol Exp Ther. 1999 October; 291(1):265-79).
# The effect of test compounds is evaluated in a mice model of cocaine-induced locomotion increase.
# Subjects: Swiss-Webster Mice, Male
# Apparatus: Automated Photocell Chambers
# Drugs: Cocaine 20 mg/kg is administered ip, test compounds dissolved in vehicle are administered ip at different doses (10-100 mg/kg) right before cocaine.
# Behavioral test; Animals (8 per experimental group) received ip injection of cocaine (20 mg/kg) or saline and either the test compounds (10-100 mg/kg ip) or their vehicle and locomotor activity is recorded for 1 hour. […]
# Maximal effect: The 30 min time period in which cocaine (20 mg/kg) produces the maximal activity is used to determine test compound effect. […] The AD50 (dose that attenuates cocaine-induced stimulation by 50%) is determined from the linear regression analysis.
# [2] = test system: patients with idiopathic RLS; assay: Open label RLS study, 2 week administration in 10 patients with idiopathic RLS; type: in vivo, human
# Procedure: In an open label study conducted on 10 patients with idiopathic RLS, 2 week administration of (S)-(+)-2-[4-(3-Fluorobenzyloxy)-benzylamino]-propanamide 100 mg/die resulted efficacious in improving RLS symptoms. Patients were included in the study if they fulfilled the minimal diagnostic criteria according to the International RLS Study Group. Patients' symptoms had to interfere with sleep onset or maintenance for at least 6 months and at least 15 nights during the last 12 weeks, and they should have IRLS 10(International Restless Legs Syndrome) score equal to or greater than 15 at baseline assessment. Physical examination, biochemical and haematological laboratory tests and electrocardiogram were performed to ensure that selection criteria were fulfilled. Polysomnography was performed for 2 nights at baseline and 2 nights at the end of treatment, in order to verify the effects of (S)-(+)-2-[4-(3-Fluorobenzyloxy)benzylamino]propanamide on sleep. Efficacy was measured through the following evaluation scales: International Restless Legs Syndrome 10 (IRLS 10), Restless Legs Syndrome Quality of Life (RLS QoL), Work Productivity and Activity Impairment Questionnaire (WPAI RLS) and Clinical Global Impression (CGI part I and CGI part II).
# Ten out of 10 patients enrolled were considered eligible for the efficacy analysis: ail of them completed the planned period of treatment of 14+3 days. […] As to the main disease, it was considered severe in 70% of patients according to CGI criteria and confirmed by IRLS-10 score, with an impact on daily activity, that could be quantified (according to WPAI-RLS, and RLS-QoLQ results) in about ⅓ of the usual performances.
# cocaine detoxification = conditions: rats and human; cited from earlier work
# smoking cessation = conditions: 200 mg/day; from 17 to 30%; cited from earlier work
# alcohol dependence = conditions: clinical study; cited from earlier work
# [3] = 100 mg/die, 2 weeks, 10 patients
structure (smiles),measurement,setting,value
C[C@H](NCc1ccc(OCc2cccc(F)c2)cc1)C(N)=O [(S)-(+)-2-[4-(3-Fluorobenzyloxy)-benzylamino]propanamide],effect on cocaine-induced hyperactivity (total locomotor activity),[1],significantly decreased
same,improvement of RLS symptoms,"[2]; 100 mg/die, 2 week administration, 10 patients",efficacious; also recorded: significant improvement
same,adverse events,[2]; [3],no adverse events
same,tolerability,[2]; [3],well tolerated
same,CGI part II changes from previous visit: Minimally Improved,[2]; Final visit,5 (50) N (%)
same,CGI part II changes from previous visit: Much Improved,[2]; Final visit,2 (20) N (%)
same,CGI part II changes from previous visit: No change,[2]; Final visit,1 (10) N (%)
same,CGI part II changes from previous visit: Very Much Improved,[2]; Final visit,2 (20) N (%)
same,"IRLS 10 Score, Impact, Mean",[2]; Final visit (baseline 4.20),3.00
same,"IRLS 10 Score, Associate Features, mean",[2]; Final visit (baseline 5.10),4.30
same,"IRLS 10 Score, Severity, mean",[2]; Final visit (baseline 7.00),6.00
same,"IRLS 10 Score, Diagnostic Features, mean",[2]; Final visit (baseline 11.20),8.50
same,"IRLS 10 Score, Total Score, mean",[2]; Final visit (baseline 27.50),21.80
same,"IRLS 10 Score, Diagnostic Features, changes","[2]; Final vs Baseline, p 0.002",−2.70
same,"IRLS 10 Score, Total Score, changes","[2]; Final vs Baseline, p 0.002",−5.70
same,"IRLS 10 Score, Impact, changes","[2]; Final vs Baseline, p 0.003",−1.20
same,"IRLS 10 Score, Severity, changes","[2]; Final vs Baseline, p 0.063",−1.00
same,"IRLS 10 Score, Associate Features, changes","[2]; Final vs Baseline, p 0.070",−0.80
same,CGI part I: patients with stable disease,[2]; after 2 weeks,40%
same,CGI part II: patients with improvement of any grading,[2]; after 2 weeks,90%
same,CGI part II: patients with no changes,[2]; after 2 weeks,10%
same,WPAI-RLS item 6 impairment of daily activities,"[2]; after 2 weeks (from 34% at baseline), p=0.005, FIG. 3",22%
same,Polysomnographic registration: PLM (Wake+Sleep) Index,"[2]; after 2 weeks versus baseline, FIG. 4",statistically significant improvement versus baseline
same,Polysomnographic registration: PLM Sleep Index,"[2]; after 2 weeks versus baseline, FIG. 5",statistically significant improvement versus baseline
same,Polysomnographic registration: PLM Wake Index,"[2]; after 2 weeks versus baseline, FIG. 6",statistically significant improvement versus baseline
same,RLS-QoLQ total score,"[2]; after 2 weeks vs baseline, p=0.002, FIG. 2",significant decrease
same,CGI part I: patients with improvement in disease situation,"[2]; after 2 weeks, P=0,031",60%
same,"IRLS-10 scale total score, result in words","[2]; after 2 weeks, p=0.002",statistically significant improvement
same,safety profile,[2]; conclusion of the trial,good safety profile
"C#CCN(C)[C@H](C)Cc1ccccc1 [Selegeline, selegiline, reference compound]",effect on cocaine-induced hyperactivity (total locomotor activity),[1],did not reverse
same,anti-reinforcing effect during cocaine detoxification,cocaine detoxification,moderate anti-reinforcing effect
NCCNC(=O)c1ccc(Cl)cn1 [lazabemide],percentage of smoking cessation,smoking cessation,30%
CC1(C)O[C@@H]2[C@@H](CO[C@@]3(COS(N)(=O)=O)OC(C)(C)O[C@@H]23)O1 [topiramate],efficacy in the treatment of alcohol dependence,alcohol dependence,efficacious
